Publication PMC10454243, “Anticancer Study of a Novel Pan-HDAC Inhibitor MPT0G236 in Colorectal Cancer Cells” (International Journal of Molecular Sciences, 2023)
Where two headings read alike, the source gives them in different places. One block for each molecule: values may come before it.

Experiments:
HDAC5 = molecular target: T1, HDAC5 (Homo sapiens, UniProt Q9UQL6); assay: HDAC enzyme inhibition assay, HDAC5; assay type: biochemical; conditions: Class IIa; Reaction Biology Corp. assay
T1 construct: purchased Reaction Biology Corp. (contract assay service)
T1 sequence (Q9UQL6 whole entry): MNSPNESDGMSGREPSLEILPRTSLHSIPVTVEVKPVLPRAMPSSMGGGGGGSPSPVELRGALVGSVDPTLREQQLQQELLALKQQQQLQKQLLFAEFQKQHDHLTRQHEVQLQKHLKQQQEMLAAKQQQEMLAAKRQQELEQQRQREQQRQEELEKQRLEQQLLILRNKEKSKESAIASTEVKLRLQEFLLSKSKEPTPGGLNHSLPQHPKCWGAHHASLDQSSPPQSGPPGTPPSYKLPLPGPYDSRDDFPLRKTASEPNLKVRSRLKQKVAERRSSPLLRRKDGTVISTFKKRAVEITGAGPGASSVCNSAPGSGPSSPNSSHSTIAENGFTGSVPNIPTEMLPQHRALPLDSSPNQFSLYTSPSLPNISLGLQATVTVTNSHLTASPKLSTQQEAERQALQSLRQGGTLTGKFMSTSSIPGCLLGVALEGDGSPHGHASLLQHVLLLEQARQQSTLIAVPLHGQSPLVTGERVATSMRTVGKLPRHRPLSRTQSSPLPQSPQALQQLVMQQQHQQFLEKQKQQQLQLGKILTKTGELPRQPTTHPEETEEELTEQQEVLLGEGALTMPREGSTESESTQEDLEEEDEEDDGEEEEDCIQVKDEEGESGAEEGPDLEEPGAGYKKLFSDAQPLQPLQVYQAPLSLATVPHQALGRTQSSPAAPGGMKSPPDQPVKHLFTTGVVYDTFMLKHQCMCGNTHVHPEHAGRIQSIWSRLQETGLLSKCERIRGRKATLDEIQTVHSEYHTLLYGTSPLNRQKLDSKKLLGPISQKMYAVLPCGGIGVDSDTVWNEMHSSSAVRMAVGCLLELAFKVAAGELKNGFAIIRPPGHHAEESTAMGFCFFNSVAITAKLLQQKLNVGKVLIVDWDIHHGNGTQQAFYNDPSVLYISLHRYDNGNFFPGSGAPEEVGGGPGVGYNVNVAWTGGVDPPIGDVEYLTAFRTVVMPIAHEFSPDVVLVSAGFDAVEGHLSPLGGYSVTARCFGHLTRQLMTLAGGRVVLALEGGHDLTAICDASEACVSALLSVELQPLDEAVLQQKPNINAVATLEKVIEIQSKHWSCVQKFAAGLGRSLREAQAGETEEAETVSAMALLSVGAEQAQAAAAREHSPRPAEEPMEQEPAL
Procedure: (§1) HDAC activity inhibition assays were performed by Reaction Biology Corp. (Malvern, PA, USA).

HDAC4 = molecular target: T2, HDAC4 (Homo sapiens, UniProt P56524); assay: HDAC enzyme inhibition assay, HDAC4; assay type: biochemical; conditions: Class IIa; Reaction Biology Corp. assay
T2 construct: purchased Reaction Biology Corp. (contract assay service)
T2 sequence (P56524 whole entry): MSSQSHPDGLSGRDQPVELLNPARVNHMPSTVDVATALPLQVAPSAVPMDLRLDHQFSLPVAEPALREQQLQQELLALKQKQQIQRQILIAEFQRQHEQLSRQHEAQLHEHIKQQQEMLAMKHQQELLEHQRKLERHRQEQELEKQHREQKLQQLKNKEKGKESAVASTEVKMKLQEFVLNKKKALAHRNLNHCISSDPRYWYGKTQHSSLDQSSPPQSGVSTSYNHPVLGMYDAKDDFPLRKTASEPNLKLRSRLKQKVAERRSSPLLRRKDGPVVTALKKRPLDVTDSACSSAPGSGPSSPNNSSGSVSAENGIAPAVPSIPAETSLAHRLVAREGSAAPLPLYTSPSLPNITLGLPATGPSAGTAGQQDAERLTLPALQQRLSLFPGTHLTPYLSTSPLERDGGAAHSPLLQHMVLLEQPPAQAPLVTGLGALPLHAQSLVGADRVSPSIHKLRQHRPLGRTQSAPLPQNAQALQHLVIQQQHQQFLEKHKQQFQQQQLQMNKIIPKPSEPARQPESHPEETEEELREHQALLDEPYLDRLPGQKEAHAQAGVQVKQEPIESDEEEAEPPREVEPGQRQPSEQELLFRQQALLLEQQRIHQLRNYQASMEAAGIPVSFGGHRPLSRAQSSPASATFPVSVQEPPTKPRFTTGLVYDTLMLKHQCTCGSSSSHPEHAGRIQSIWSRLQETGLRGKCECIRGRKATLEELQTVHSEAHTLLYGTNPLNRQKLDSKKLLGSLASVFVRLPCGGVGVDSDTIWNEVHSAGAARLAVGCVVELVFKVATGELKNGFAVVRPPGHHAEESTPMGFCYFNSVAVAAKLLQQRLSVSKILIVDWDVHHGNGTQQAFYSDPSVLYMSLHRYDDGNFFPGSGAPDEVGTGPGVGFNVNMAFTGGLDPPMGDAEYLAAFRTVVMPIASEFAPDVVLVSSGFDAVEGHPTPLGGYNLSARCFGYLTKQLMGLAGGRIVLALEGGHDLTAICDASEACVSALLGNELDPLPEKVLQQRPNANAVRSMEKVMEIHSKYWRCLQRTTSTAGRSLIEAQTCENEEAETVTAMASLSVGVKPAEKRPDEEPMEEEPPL
Procedure: as §1

[1] = design: method as in PMID 27344487; conditions: in vivo HCT-116 tumor study; cited from earlier work
[2] = tested on: HCT-116 human colorectal cancer cells; assay: SRB cell proliferation (growth) assay, HCT-116; assay type: cell-based; conditions: read-out: GI50 cell growth
Procedure: (§2) The impacts of MPT0G236 on cell viability (A,C) and cell growth (B) were evaluated with HCT-116 and HT-29 human colorectal cancer cells, as well as human umbilical vein endothelial cells (HUVECs). The cells were treated with different concentrations of the compound for 48 h. Cell viability was measured using an MTT assay, while cell growth was assessed using an SRB assay. The data are shown as the mean ± SEM on the basis of three independent experiments. […] The basal cells were fixed with 10% (w/v) trichloroacetic acid for 10 min. […] After treatment, the cells were fixed with 10% TCA, stained with SRB at a concentration of 0.4% (w/v), and washed with 1% acetic acid. After drying, the stained cells were lysed with 10 mM Trizma base, and the absorbance was measured at a wavelength of 515 nm.

HDAC7 = molecular target: T3, HDAC7 (Homo sapiens, UniProt Q8WUI4); assay: HDAC enzyme inhibition assay, HDAC7; assay type: biochemical; conditions: Class IIa; Reaction Biology Corp. assay
T3 construct: purchased Reaction Biology Corp. (contract assay service)
T3 sequence (Q8WUI4 1-952): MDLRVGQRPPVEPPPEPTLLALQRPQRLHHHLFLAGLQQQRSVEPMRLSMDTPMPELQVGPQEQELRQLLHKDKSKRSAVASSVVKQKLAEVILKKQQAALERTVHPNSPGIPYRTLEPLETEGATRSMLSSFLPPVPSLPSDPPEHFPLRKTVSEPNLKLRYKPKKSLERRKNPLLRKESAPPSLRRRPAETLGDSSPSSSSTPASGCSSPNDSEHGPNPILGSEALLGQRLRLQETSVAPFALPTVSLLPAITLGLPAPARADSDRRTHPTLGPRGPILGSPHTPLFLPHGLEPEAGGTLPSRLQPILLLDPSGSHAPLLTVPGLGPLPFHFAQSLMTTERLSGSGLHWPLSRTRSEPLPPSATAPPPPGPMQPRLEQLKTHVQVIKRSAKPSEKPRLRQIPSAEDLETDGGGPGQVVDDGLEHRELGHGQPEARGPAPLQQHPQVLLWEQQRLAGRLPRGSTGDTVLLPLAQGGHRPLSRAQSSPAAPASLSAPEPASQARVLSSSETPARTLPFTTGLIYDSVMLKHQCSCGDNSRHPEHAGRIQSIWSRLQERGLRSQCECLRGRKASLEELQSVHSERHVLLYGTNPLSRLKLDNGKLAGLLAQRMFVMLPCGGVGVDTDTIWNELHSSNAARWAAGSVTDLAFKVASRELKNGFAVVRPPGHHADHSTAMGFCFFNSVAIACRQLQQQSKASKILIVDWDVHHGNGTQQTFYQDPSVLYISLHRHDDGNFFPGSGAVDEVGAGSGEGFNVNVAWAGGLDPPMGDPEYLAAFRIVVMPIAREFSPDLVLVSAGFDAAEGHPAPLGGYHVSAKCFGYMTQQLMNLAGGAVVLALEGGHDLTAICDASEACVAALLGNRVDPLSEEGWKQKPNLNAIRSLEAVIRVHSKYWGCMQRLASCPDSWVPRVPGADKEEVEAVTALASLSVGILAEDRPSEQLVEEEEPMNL
Procedure: as §1

[3] = tested on: HT-29 human colorectal cancer cells; assay: SRB cell proliferation (growth) assay, HT-29; assay type: cell-based; conditions: read-out: GI50 cell growth
Procedure: as §2

PC-3 cells = tested on: PC-3 cells; design: method as in PMID 27344487; conditions: previous study, read-out: GI50 cell proliferation; cited from earlier work
HDAC9 = molecular target: T4, HDAC9 (Homo sapiens, UniProt Q9UKV0); assay: HDAC enzyme inhibition assay, HDAC9; assay type: biochemical; conditions: Class IIa; Reaction Biology Corp. assay
T4 construct: purchased Reaction Biology Corp. (contract assay service)
T4 sequence (Q9UKV0 whole entry): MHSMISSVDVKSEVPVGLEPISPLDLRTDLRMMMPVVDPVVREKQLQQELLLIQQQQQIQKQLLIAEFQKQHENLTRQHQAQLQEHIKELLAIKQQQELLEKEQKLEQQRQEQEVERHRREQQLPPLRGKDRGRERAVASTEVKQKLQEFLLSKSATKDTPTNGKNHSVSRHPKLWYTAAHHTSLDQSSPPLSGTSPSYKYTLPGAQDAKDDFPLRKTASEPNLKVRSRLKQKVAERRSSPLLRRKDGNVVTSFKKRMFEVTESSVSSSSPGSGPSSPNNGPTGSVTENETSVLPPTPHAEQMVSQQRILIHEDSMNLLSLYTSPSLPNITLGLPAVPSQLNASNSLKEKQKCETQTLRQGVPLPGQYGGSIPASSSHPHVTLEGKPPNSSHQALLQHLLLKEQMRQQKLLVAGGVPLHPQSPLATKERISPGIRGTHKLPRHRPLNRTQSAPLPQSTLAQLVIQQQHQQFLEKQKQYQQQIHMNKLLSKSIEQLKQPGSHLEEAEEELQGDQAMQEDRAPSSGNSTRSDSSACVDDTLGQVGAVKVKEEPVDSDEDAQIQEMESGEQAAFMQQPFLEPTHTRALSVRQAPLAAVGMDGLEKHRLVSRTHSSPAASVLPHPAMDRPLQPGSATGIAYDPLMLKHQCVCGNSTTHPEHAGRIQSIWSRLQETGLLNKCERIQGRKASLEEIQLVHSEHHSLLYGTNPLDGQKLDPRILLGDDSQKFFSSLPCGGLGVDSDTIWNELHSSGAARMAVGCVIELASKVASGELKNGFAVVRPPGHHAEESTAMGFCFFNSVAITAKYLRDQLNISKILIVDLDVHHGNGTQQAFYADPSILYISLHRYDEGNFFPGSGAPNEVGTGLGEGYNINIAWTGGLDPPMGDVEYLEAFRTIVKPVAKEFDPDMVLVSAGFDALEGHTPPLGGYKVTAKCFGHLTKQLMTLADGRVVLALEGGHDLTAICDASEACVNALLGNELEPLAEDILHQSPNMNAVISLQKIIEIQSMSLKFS
Procedure: as §1

[4] = tested on: HT-29 human colorectal cancer cells; assay: MTT cell viability assay, HT-29; assay type: cell-based; conditions: read-out: IC50 cell viability
A549 cells = tested on: A549 cells; design: method as in PMID 27344487; conditions: previous study, read-out: GI50 cell proliferation; cited from earlier work
[5] = tested on: acetyl-α-tubulin and acetyl-histone H3 in HCT-116 cells; assay: Western blot of acetyl-α-tubulin and acetyl-histone H3, HCT-116; assay type: cell-based, human; conditions: 24 h
Procedure: (§3) Figure 2 MPT0G236 induced acetylation of α-tubulin and histone H3 in human colorectal cells. (A) The structure of MPT0G236. […] Protein expression was quantified by using the computerized image analysis application in ImageJ software V1.53k. The data are shown as the mean ± SEM on the basis of at least three independent experiments. * p < 0.05, ** p < 0.01, *** p < 0.001 and **** p < 0.0001 compared with the control group.
(§4) Cells were washed with PBS and incubated with lysis buffer (20 mM HEPES, pH 7.4; 2 mM EGTA; 0.1% Triton X-100; 50 mM β-glycerophosphate; 1 mM DTT; 10% glycerol; 1 μg/mL leupeptin; 1 mM sodium orthovanadate; 1 mM phenylmethylsulfonyl fluoride; 5 μg/mL aprotinin) for 10 min at 4 °C. The cells were then scraped off and incubated on ice for an additional 10 min before being centrifuged at 17,000× g for 30 min at 4 °C. The total protein […] was determined, and equal amounts of proteins were separated by […] on sodium dodecyl sulfate polyacrylamide gels (SDS-PAGE) and transferred onto a nitrocellulose membrane. […] Signals were detected with chemiluminescence reagents (GE Healthcare Corp., Buckinghamshire, UK), and the membranes were scanned using a ChemiDocTM MP Imaging System. Protein levels in the Western blots were then quantified using ImageJ software V1.53k.

HDAC3 = molecular target: T5, HDAC3 (Homo sapiens, UniProt O15379); assay: HDAC enzyme inhibition assay, HDAC3; assay type: biochemical; conditions: Class I; Reaction Biology Corp. assay
T5 construct: purchased Reaction Biology Corp. (contract assay service)
T5 sequence (O15379 whole entry): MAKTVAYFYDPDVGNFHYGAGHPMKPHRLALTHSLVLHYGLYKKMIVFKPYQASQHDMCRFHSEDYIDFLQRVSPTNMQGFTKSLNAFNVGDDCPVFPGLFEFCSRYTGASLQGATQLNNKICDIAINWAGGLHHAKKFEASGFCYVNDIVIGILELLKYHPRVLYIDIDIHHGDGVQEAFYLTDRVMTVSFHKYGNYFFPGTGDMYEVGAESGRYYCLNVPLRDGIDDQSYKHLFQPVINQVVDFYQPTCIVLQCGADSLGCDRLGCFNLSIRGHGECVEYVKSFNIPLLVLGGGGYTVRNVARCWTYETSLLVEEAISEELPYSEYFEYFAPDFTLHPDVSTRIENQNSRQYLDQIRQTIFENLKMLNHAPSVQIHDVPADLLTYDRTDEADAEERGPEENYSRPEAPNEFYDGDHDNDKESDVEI
T5 sequence (Q9Y618 395-489 partner limits assumed): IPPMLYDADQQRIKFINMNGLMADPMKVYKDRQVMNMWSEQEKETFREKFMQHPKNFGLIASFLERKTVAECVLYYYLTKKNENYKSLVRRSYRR
Procedure: as §1

[6] = tested on: HCT-116 human colorectal cancer cells; assay: MTT cell viability assay, HCT-116; assay type: cell-based; conditions: 48 h
HDAC8 = conditions: Class I; cited from earlier work
HCT-116 tumor = tested on: HCT-116 tumor; design: method as in PMID 27344487; conditions: cited from earlier work
HDAC1 = tested on: HDAC1; design: method as in PMID 27344487; conditions: Class I; cited from earlier work
[7] = tested on: human umbilical vein endothelial cells (HUVECs); assay: MTT cell viability assay, HUVEC; assay type: cell-based
HCT-116 cells = tested on: HCT-116 cells; design: method as in PMID 27344487; conditions: previous study, read-out: GI50 cell proliferation; cited from earlier work
HDAC2 = tested on: HDAC2; design: method as in PMID 27344487; conditions: Class I; cited from earlier work
HDAC6 = tested on: HDAC6; design: method as in PMID 27344487; conditions: Class IIb; cited from earlier work
[8] = tested on: acetyl-α-tubulin and acetyl-histone H3 in HT-29 cells; assay: Western blot of acetyl-α-tubulin and acetyl-histone H3, HT-29; assay type: cell-based, human; conditions: 24 h
Procedure: as §3, §4

IC50 (HDAC5): 15500 nM
IC50 (HDAC4): 19700 nM
GI50 ([2]; HCT-116, SRB, 48 h): 100 nM
IC50 (HDAC7): 12300 nM
GI50 ([3]; HT-29, SRB, 48 h): 310 nM
IC50 (HDAC9): 12600 nM
IC50 ([4]; HT-29, MTT, 48 h): 880 nM
IC50 (HDAC3): 70 nM
IC50 [6]: 350 nM
Structure (SMILES): O=C(/C=C/c1cccc(S(=O)(=O)c2ccc3ccccc3n2)c1)NO [MPT0G236]
effect on body weight [1]: without affecting body weight
GI50 (PC-3 cells): 150 ± 10 nM
GI50 (A549 cells): 270 ± 20 nM
concentration that significantly increased accumulation of acetyl-α-tubulin [5]: 0.3 µM
concentration that significantly increased histone acetylation [5]: 1 µM
IC50 (HDAC8): 130 nM
HCT-116 tumor growth suppression (HCT-116 tumor; oral administration of 50 mg/kg): 32.2%
HCT-116 tumor growth suppression (HCT-116 tumor; oral administration of 100 mg/kg): 58.8%
IC50 (HDAC1): 14 nM
normal cells (HUVEC) less sensitive than colorectal cancer cells ([7]; HUVEC IC50 versus HCT-116 and HT-29 IC50): more than 10 fold
IC50 ([7]; Homo sapiens, HUVEC, 48 h): 15100 nM
GI50 (HCT-116 cells): 80 ± 1 nM
IC50 (HDAC2): 11.5 nM
IC50 (HDAC6): 15 nM
concentration that significantly elevated acetyl-α-tubulin [8]: 3 µM
concentration that significantly elevated histone acetylation [8]: 1 µM

Structure (SMILES): O=C(CCCCCCC(=O)Nc1ccccc1)NO [SAHA, Suberoylanilide hydroxamic acid, reference compound]
GI50 ([2]; HCT-116, 48 h): 630 nM
GI50 ([3]; HT-29, 48 h): 470 nM
IC50 ([4]; HT-29, 48 h): 2310 nM
